Measured values from PMC9953885 (Biosensors, 2023).
pIC50: −log10 of the molar value. Structures can show the parent of a compound that is named as a salt.

Experiments:
[1] = target: T1, human pancreatic lipase (hPL) (Homo sapiens, UniProt P16233); assay: Michaelis-Menten kinetics of fluorogenic substrate hydrolysis (Km); type: biochemical
T1 construct: gene PNLIP
T1 sequence (P16233 17-465): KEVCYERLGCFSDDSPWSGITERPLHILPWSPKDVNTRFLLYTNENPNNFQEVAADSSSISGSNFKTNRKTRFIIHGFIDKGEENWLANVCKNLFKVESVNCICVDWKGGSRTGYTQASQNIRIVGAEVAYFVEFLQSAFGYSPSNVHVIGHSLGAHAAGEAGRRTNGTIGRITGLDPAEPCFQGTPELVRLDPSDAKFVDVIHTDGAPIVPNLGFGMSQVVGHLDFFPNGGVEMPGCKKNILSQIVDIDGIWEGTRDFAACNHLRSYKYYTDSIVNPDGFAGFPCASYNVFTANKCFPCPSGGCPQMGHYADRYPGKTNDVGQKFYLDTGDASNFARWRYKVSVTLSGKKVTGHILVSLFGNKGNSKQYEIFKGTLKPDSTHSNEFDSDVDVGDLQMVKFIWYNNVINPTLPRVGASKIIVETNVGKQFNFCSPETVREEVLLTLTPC

[2] = target: T1, human pancreatic lipase (hPL); assay: RLE-based fluorescence hydrolysis assay, dose-inhibition; type: biochemical
[3] = target: T1, human pancreatic lipase (hPL); settings: 10 µM; inhibitor

| Km [1] [µM] | pIC50 [2] | % of control remaining [3] [%] | Compound |
| --- | --- | --- | --- |
| 10.4 | – | – | CCCCCCCCCCCC(=O)Oc1ccc2nc3ccc(=O)cc-3oc2c1 [RLE, 3-oxo-3H-phenoxazin-7-yl dodecanoate] |
| – | 5.87 | 5.25 | COc1ccc(-c2cc(=O)c3c(O)cc(O)c(-c4cc(-c5cc(=O)c6c(O)cc(OC)cc6o5)ccc4OC)c3o2)cc1 [h10, sciadopitysin] |
| – | 4.81 | 44.04 | CNC(=O)c1cc(Oc2ccc(NC(=O)Nc3ccc(Cl)c(C(F)(F)F)c3)cc2)ccn1 [f1, sorafenib tosylate] |
| – | 6.24 | 4.20 | CC(C)c1cc2c(c(O)c1O)[C@@]13CCCC(C)(C)[C@@H]1C[C@@H]2OC3=O [h9, carnosol] |
| – | 5.25 | 4.05 | O=C(c1ccc(OCCN2CCCCC2)cc1)c1c(-c2ccc(O)cc2)sc2cc(O)ccc12 [d1, raloxifene] |
| – | – | 89.14 | C[C@@H]1O[C@@H](O[C@H]2[C@H](OC(=O)[C@]34CCC(C)(C)C[C@H]3C3=CC[C@@H]5[C@@]6(C)C[C@H](O)[C@H](O[C@@H]7O[C@H](CO)[C@@H](O)[C@H](O)[C@H]7O)C(CO)(CO)[C@@H]6CC[C@@]5(C)[C@]3(C)C[C@H]4O)OC[C@H](O)[C@@H]2O)[C@H](O)[C@H](O)[C@H]1O[C@@H]1OC[C@@H](O)[C@H](O[C@@H]2OC[C@](O)(CO)[C@H]2O)[C@H]1O [Platycodin D] |
| – | – | 79.89 | COc1cc(OC)c(CCC(=O)c2ccc(O)cc2)c(OC)c1 [Loureirin B] |
| – | – | 81.23 | O=C(CCc1ccc(O)cc1)c1c(O)cc(O)cc1O [Phloretin] |
| – | – | 54.11 | COc1c2ccoc2cc2oc(=O)ccc12 [Bergapten] |
| – | – | 107.78 | COc1cc(O)cc2c1C(=O)C[C@@H](c1ccccc1)O2 [Alpinetin] |
| – | – | 81.83 | O=C(O)CCc1nc(-c2ccccc2)c(-c2ccccc2)o1 [Oxaprozin] |
| – | – | 93.02 | CCOC(=O)C1=C(C)NC(C)=C(C(=O)OC)C1c1cccc(Cl)c1Cl (centres unmarked) [Felodipine] |
| – | – | 72.90 | CC(C)=CCOc1c2ccoc2cc2oc(=O)ccc12 [Isoimperatorin] |
| – | – | 105.06 | Nc1ccn([C@@H]2O[C@H](CO)[C@@H](O)C2(F)F)c(=O)n1 [Gemcitabine] |
| – | – | 118.66 | O=C(NC[C@H]1CN(c2ccc(N3CCOCC3=O)cc2)C(=O)O1)c1ccc(Cl)s1 [Rivaroxaban] |
| – | – | 99.42 | NS(=O)(=O)c1cc2c(cc1Cl)NCNS2(=O)=O [Hydrochlorothiazide] |
| – | – | 104.95 | COc1cc2/c(=N/c3ccc(Br)cc3F)nc[nH]c2cc1OCC1CCN(C)CC1 [Vandetanib] |
| – | – | 104.15 | NC(=O)N1c2ccccc2C=Cc2ccccc21 [Carbamazepine] |
| – | – | 76.99 | CC(=O)Nc1ccc(OC(=O)c2ccccc2OC(C)=O)cc1 [Benorilate] |
| – | – | 98.67 | CCC(CC)COC(=O)[C@H](C)N[P@](=O)(OC[C@H]1O[C@@](C#N)(c2ccc3c(N)ncnn23)[C@H](O)[C@@H]1O)Oc1ccccc1 [Remdesivir] |
| – | – | 79.60 | CC1(C)OC(=O)C=C[C@]2(C)[C@H]3CC[C@@]4(C)[C@H](c5ccoc5)OC(=O)[C@H]5O[C@]54[C@]3(C)C(=O)C[C@@H]12 [Obacunon] |
| – | – | 75.65 | CCCCC1OC(=O)C2=C1CCC=C2 (centres unmarked) [3-N-butyl-4,5-dihydrophthalide] |
